Like-named read-outs stand apart in the source and are kept apart here.
What was measured:
[1] = tested on: A549; assay: 72-h MTT cytotoxicity assay, A549; assay type: cell-based, human; conditions: Homo sapiens
[2] = tested on: HL60; assay: 72-h MTT assay, HL60; assay type: cell-based; conditions: Homo sapiens, HL-60, 72 h, read-out: 72-h MTT IC50 HL60; Table 3; Promyelocytic leukaemia
Description: (§1) The compounds from the examples above were subjected to a standard cellular proliferation assay using human tumour cell lines obtained from the ATCC (American Type Culture Collection, 10801 University Boulevard, Manessas, Va. 20110-2209, USA). Standard 72-h MTT (thiazolyl blue; 3-[4,5-dimethylthiazol-2-yl]-2,5-diphenyltetrazolium bromide) assays were performed (Haselsberger, K.; Peterson, D. C.; Thomas, D. G.; Darling, J. L. Anti Cancer Drugs 1996, 7, 331-8; Loveland, B. E.; Johns, T. G.; Mackay, I. R.; Vaillant, F.; Wang, Z. X.; Hertzog, P. J. Biochemistry International 1992, 27, 501-10). In short: cells were seeded into 96-well plates according to doubling time and incubated overnight at 37° C. Test compounds were made up in DMSO and a 1/3 dilution series prepared in 100 μL cell media, added to cells (in triplicates) and incubated for 72 ho at 37° C. MTT was made up as a stock of 5 mg/mL in cell media and filter-sterilised. Media was removed from cells followed by a wash with 200 μL PBS. MTT solution was then added at 20 μL per well and incubated in the dark at 37° C. for 4 h. MTT solution was removed and cells again washed with 200 μL PBS. MTT dye was solubilised with 200 μL per well of DMSO with agitation.

[3] = tested on: IMR-90; assay: 72-h MTT assay, IMR-90; assay type: cell-based; conditions: Homo sapiens, IMR-90, 72 h, read-out: 72-h MTT IC50 IMR-90; Table 3; Foetal lung fibroblast (non-transformed)
Description: as §1

[4] = tested on: nci-H460; assay: 72-h MTT assay, nci-H460; assay type: cell-based; conditions: Homo sapiens, NCI-H460, 72 h, read-out: 72-h MTT IC50 nci-H460; Table 3; Lung
Description: as §1

[5] = target: CDK4/cyclin D1 (Homo sapiens, UniProt P11802); assay: Kinase assay CDK4/cyclin D1;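 further: Enzyme: His6-tagged recombinant human CDK4 produced in baculovirus-infected Sf9 insect cells and purified by metal-chelate chromatography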
[6] = tested on: U2OS; assay: 72-h MTT assay, U2OS; assay type: cell-based; conditions: Homo sapiens, read-out: 72-h MTT IC50 U2OS, Table 3, Bone osteosarcoma
Description: as §1

[7] = tested on: HT29; assay: 72-h MTT cytotoxicity assay, HT29; assay type: cell-based; conditions: Homo sapiens
In short: (§2)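 Human cell lines seeded at densities set by doubling time, left overnight at 37° C, then exposed in triplicate to a 1/3 dilution series of compound in DMSO for 72 h at 37° C. Viability read by MTT reduction (4 h, dark, 37° C), formazan dissolved in DMSO.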

[8] = tested on: SJSA-1; assay: 72-h MTT assay, SJSA-1; assay type: cell-based; conditions: Homo sapiens, SJSA-1, 72 h, read-out: 72-h MTT IC50 SJSA-1; Table 3; Osteogenic sarcoma
Description: as §1

[9] = tested on: Messa; assay: 72-h MTT assay, Messa; assay type: cell-based; conditions: Homo sapiens, MES-SA, read-out: 72-h MTT IC50 Messa, Table 3, Uterine
Description: as §1

[10] = tested on: DU-145; assay: 72-h MTT assay, DU-145; assay type: cell-based; conditions: Homo sapiens, DU-145, 72 h, read-out: 72-h MTT IC50 DU-145; Table 3; Prostate
Description: as §1

[11] = tested on: SK-N-MC; assay: 72-h MTT assay, SK-N-MC; assay type: cell-based; conditions: Homo sapiens, read-out: 72-h MTT IC50 SK-N-MC, Table 3, Neuroblastoma
Description: as §1

[12] = tested on: WI38; assay: 72-h MTT assay, WI38; assay type: cell-based; conditions: Homo sapiens, WI-38, 72 h, read-out: 72-h MTT IC50 WI38; Table 3; Foetal lung (non-transformed)
Description: as §1

[13] = tested on: SKUT-1; assay: 72-h MTT assay, SKUT-1; assay type: cell-based; conditions: Homo sapiens, SK-UT-1, 72 h, read-out: 72-h MTT IC50 SKUT-1; Table 3; Leiomyosarcoma
Description: as §1

[14] = tested on: H1299; assay: 72-h MTT assay, H1299; assay type: cell-based; conditions: Homo sapiens, NCI-H1299, 72 h, read-out: 72-h MTT IC50 H1299; Table 3; Lung
Description: as §1

[15] = tested on: CCRF-CEM; assay: 72-h MTT assay, CCRF-CEM; assay type: cell-based; conditions: Homo sapiens, read-out: 72-h MTT IC50 CCRF-CEM, Table 3, Leukaemia
Description: as §1

[16] = tested on: K562; assay: 72-h MTT assay, K562; assay type: cell-based; conditions: Homo sapiens, K562, 72 h, read-out: 72-h MTT IC50 K562; Table 3; Chronic myelogenous leukaemia
Description: as §1

[17] = tested on: Hacat; assay: 72-h MTT assay, Hacat; assay type: cell-based; conditions: Homo sapiens, read-out: 72-h MTT IC50 Hacat, Table 3, Skin keratinocytes
Description: as §1

[18] = tested on: Hs27; assay: 72-h MTT assay, Hs27; assay type: cell-based; conditions: Homo sapiens, HS27, 72 h, read-out: 72-h MTT IC50 Hs27; Table 3; Foreskin fibroblast (non-transformed)
Description: as §1

[19] = tested on: Lovo; assay: 72-h MTT assay, Lovo; assay type: cell-based; conditions: Homo sapiens, read-out: 72-h MTT IC50 Lovo, Table 3, Colon
Description: as §1

[20] = tested on: Messa-Dx5; assay: 72-h MTT assay, Messa-Dx5; assay type: cell-based; conditions: Homo sapiens, MES-SA/Dx5, 72 h, read-out: 72-h MTT IC50 Messa-Dx5; Table 3; Uterine
Description: as §1

[21] = tested on: MCF-7; assay: 72-h MTT assay, MCF-7; assay type: cell-based; conditions: Homo sapiens, MCF7, 72 h, read-out: 72-h MTT IC50 MCF-7; Table 3; Breast
Description: as §1

[22] = target: T1, CDK2/cyclin E (Homo sapiens, UniProt P24941); assay: Kinase assay CDK2/cyclin E; assay type: biochemical; conditions: Table 1; read-out: Kinase inhibition, IC50 (μM) CDK2/E
T1 construct: His6

[23] = tested on: SKUT-1B; assay: 72-h MTT assay, SKUT-1B; assay type: cell-based; conditions: Homo sapiens, Skut1B, read-out: 72-h MTT IC50 SKUT-1B, Table 3, Leiomyosarcoma
Description: as §1

[24] = tested on: tumour cells; assay: 72-h MTT assay, mean over tumour cell lines; assay type: cell-based; conditions: Homo sapiens, Table 3
Description: as §1

[25] = tested on: AGS; assay: 72-h MTT assay, AGS; assay type: cell-based; conditions: Homo sapiens, read-out: 72-h MTT IC50 AGS, Table 3, Gastric adenocarcinoma
Description: as §1

[26] = tested on: HCT-116; assay: 72-h MTT assay, HCT-116; assay type: cell-based; conditions: Homo sapiens, HCT-116, 72 h, read-out: 72-h MTT IC50 HCT-116; Table 3; Colon
Description: as §1

[27] = tested on: Saos-2; assay: 72-h MTT cytotoxicity assay, Saos-2; assay type: cell-based; conditions: Homo sapiens
In short: as §2

[28] = tested on: Hela; assay: 72-h MTT assay, Hela; assay type: cell-based; conditions: Homo sapiens, read-out: 72-h MTT IC50 Hela, Table 3, Cervix
Description: as §1

[29] = target: T2, protein kinase C α (Homo sapiens, UniProt P17252); assay: Kinase specificity assay PKCα; assay type: biochemical; conditions: Table 2
T2 construct: His6
Description: PKCα kinase activity may be measured by the incorporation of radio-labeled phosphate in Histone 3, as described. The reaction mixture (total volume 65 μl) consist of 50 mM Tris-HCl, 1 mM Calcium acetate, 3 mM DTT, 0.03 mg/ml Phosphatidylserine, 2.4 μg/ml PMA, 0.04% NP40, 12 mM Mg/Cl, purified PKCα-100 ng, Histone 3, 0.2 mg/ml, 100 μM ATP, 0.2 μCi [γ-^32P]-ATP. The reaction is carried over 15 min at 37° C. in microplate shaker and is stopped by adding 10 μl 75 mM orthophosphoric acid and placing the plate on ice. 50 μl of the reaction mixture is transferred onto P81 filterplate and after washing off the free radioactive phosphate (3 times with 200 μl 75 mM orthophosphoric acid per well) 50 μl of scintillation liquid (Microscint 40) were added to each well and the radioactivity is measured on Scintillation counter (Topcount, HP).

[30] = target: glycogen synthase kinase 3β (Homo sapiens, UniProt P49841); assay: Kinase specificity assay GSK3β; assay type: biochemical; conditions: Table 2
[31] = target: stress-activated protein kinase 2a (Homo sapiens, UniProt Q16539); assay: Kinase specificity assay SAPK2a; assay type: biochemical; conditions: Table 2
[32] = target: p70 ribosomal protein S6 kinase (Homo sapiens, UniProt P23443); assay: Kinase specificity assay p70-S6K; assay type: biochemical; conditions: Table 2
[33] = target: CDK7-cyclin H-MAT 1 complex (Homo sapiens, UniProt P50613); assay: Kinase specificity assay CDK7/H; assay type: biochemical; conditions: Table 2
[34] = target: Ableson tyrosine kinase (Homo sapiens, UniProt P00519); assay: Kinase specificity assay Abl; assay type: biochemical; conditions: Table 2
[35] = target: polo-like kinase 1 (Homo sapiens, UniProt P53350); assay: Kinase specificity assay Plk1; assay type: biochemical; conditions: Table 2
[36] = target: calmodulin-dependent kinase II; conditions: read-out: Kinase specificity IC50 Cam-KII; Table 2
[37] = target: extracellular-signal-regulated kinase 2 (Homo sapiens, UniProt P28482); assay: Kinase specificity assay ERK-2; assay type: biochemical; conditions: Table 2
[38] = target: protein kinase B (Homo sapiens, UniProt P31749); assay: Kinase specificity assay Akt/PKB; assay type: biochemical; conditions: Table 2
[39] = target: T3, CDK1-cyclin B1 complex (Homo sapiens, UniProt P06493); assay: Kinase specificity assay CDK1/B1; assay type: biochemical; conditions: Table 2
T3 construct: His6

[40] = HT-29, read-out: 72-h MTT in vitro IC50 (μM) HT29, Table 1, 72 h
[41] = SAOS-2, read-out: 72-h MTT in vitro IC50 (μM) Saos-2, Table 1, 72 h

CDK4/cyclin D1, sequence (P11802 whole entry): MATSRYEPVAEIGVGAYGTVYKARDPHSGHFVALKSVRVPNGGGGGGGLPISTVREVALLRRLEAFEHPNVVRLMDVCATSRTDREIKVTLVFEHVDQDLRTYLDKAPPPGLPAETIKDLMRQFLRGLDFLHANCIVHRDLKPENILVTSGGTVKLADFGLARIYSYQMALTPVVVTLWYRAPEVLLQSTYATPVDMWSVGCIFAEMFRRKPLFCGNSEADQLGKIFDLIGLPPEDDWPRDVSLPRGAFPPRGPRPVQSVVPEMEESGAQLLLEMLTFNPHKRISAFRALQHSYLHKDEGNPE
CDK4/cyclin D1, sequence (P24385 whole entry partner): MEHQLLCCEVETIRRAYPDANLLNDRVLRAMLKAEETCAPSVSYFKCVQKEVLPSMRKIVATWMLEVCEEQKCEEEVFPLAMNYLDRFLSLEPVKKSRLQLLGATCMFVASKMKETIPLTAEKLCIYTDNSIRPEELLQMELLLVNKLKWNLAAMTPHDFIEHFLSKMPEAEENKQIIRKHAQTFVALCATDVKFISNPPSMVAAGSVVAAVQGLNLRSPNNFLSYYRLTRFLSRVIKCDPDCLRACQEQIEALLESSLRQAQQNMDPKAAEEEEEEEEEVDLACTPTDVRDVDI
extracellular-signal-regulated kinase 2, sequence (P28482 whole entry): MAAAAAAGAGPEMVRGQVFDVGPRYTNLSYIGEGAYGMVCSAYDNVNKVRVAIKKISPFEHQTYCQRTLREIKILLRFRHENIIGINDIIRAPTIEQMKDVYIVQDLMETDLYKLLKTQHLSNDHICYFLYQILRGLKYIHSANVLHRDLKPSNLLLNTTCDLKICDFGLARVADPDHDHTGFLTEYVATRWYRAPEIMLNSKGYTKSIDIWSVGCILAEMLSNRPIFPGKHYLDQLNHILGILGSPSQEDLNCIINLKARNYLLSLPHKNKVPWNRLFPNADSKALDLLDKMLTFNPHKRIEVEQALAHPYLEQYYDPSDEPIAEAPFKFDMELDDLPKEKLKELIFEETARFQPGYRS
Ableson tyrosine kinase, sequence (P00519 whole entry): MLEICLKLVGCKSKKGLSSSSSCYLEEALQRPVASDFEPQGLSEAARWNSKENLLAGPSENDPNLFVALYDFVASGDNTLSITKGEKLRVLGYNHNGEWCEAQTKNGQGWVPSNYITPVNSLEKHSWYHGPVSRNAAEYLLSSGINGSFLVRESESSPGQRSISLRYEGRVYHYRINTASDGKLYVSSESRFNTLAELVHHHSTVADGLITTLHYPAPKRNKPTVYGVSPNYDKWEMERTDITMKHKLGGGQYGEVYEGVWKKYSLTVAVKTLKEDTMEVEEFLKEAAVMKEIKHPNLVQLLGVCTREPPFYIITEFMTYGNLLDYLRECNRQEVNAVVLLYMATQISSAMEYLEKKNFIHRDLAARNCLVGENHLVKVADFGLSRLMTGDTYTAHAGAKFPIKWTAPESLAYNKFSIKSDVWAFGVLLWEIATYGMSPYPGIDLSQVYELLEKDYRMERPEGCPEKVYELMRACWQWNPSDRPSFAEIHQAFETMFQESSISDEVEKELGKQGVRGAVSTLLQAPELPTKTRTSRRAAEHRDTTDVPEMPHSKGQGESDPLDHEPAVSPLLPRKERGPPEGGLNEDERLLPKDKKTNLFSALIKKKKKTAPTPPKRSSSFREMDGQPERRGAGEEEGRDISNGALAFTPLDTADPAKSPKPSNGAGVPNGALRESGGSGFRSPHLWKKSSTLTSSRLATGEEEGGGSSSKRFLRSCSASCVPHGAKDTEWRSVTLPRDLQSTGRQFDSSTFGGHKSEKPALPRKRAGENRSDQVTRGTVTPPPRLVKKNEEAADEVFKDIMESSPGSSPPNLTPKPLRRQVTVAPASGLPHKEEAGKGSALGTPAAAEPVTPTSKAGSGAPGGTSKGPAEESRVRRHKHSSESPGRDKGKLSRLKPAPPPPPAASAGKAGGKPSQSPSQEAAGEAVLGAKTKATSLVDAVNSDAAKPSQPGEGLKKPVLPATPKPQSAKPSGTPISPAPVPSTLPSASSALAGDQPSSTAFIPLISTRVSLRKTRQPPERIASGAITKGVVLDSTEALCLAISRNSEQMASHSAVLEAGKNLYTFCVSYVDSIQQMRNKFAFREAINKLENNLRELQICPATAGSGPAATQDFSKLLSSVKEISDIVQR
stress-activated protein kinase 2a, sequence (Q16539 whole entry): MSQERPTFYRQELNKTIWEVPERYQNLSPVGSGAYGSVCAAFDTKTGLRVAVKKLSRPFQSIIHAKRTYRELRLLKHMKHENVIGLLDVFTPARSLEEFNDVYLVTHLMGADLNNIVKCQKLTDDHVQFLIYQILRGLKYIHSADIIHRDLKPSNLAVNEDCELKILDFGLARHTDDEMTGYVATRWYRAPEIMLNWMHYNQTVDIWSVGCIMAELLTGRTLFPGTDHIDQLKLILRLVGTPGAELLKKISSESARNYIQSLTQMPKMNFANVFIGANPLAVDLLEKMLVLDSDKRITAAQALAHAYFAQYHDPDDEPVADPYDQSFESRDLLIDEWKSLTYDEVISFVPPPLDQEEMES
protein kinase B, sequence (P31749 whole entry): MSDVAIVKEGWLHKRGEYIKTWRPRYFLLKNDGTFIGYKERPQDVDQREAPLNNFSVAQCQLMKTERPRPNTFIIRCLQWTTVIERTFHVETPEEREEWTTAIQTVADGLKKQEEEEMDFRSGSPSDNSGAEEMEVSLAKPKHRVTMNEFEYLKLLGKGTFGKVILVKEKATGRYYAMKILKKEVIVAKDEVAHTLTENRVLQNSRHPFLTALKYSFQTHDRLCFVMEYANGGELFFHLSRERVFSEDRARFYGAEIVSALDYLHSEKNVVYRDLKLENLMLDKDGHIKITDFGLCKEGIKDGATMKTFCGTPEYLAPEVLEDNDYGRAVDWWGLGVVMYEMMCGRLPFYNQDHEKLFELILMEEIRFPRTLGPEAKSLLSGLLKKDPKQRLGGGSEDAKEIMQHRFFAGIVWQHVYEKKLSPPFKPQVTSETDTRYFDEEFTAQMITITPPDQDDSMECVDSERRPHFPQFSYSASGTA
polo-like kinase 1, sequence (P53350 whole entry): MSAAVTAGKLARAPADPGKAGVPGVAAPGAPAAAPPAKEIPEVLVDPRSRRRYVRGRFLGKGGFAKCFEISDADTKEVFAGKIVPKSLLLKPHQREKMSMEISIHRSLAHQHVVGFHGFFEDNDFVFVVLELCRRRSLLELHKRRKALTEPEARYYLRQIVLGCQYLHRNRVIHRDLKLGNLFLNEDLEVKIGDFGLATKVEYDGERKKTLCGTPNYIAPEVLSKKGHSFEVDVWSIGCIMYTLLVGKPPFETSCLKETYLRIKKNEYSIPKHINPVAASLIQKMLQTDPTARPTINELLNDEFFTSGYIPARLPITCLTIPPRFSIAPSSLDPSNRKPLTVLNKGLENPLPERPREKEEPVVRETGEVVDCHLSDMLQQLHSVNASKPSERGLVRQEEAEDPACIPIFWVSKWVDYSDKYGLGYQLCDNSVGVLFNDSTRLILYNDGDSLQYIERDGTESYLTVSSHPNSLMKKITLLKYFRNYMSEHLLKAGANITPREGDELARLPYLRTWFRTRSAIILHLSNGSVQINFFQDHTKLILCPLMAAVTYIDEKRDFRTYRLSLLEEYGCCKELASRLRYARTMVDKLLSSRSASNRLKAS
glycogen synthase kinase 3β, sequence (P49841 whole entry): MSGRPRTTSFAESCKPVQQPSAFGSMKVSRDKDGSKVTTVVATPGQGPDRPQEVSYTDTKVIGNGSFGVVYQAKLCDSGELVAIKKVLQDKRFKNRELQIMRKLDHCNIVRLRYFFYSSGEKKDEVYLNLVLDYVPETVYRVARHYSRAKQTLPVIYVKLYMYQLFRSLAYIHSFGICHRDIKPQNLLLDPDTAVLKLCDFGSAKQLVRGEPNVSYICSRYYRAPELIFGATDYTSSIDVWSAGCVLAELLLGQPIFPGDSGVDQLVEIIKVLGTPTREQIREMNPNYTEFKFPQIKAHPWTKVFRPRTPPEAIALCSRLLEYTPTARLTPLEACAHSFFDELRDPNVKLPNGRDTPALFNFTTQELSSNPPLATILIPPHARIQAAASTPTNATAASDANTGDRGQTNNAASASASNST

Cc1nc(N)sc1-c1ccnc(Nc2cccc(I)c2)n1 [Compound 10, [4-(2-Amino-4-methyl-thiazol-5-yl)-pyrimidin-2-yl]-(3-iodo-phenyl)-amine]
IC50 ([1]; A549, 72 h, read-out: 72-h MTT IC50 A549, Table 3, Lung): 0.6 µM
IC50 ([1]; A549, read-out: 72-h MTT in vitro IC50 (μM) A549, Table 1, 72 h): 0.29 µM
IC50 [2]: 70 nM
IC50 [3]: > 5000 nM
IC50 [4]: 180 nM
IC50 [5]: 240 nM
IC50 [6]: 500 nM
IC50 ([7]; HT-29, 72 h, read-out: 72-h MTT IC50 HT29, Table 3, Colon): 0.1 µM
IC50 [7, 40]: 0.51 µM
IC50 [8]: 850 nM
IC50 [9]: 110 nM
IC50 [10]: 750 nM
IC50 [11]: 280 nM
IC50 [12]: > 5000 nM
IC50 [13]: 300 nM
IC50 [14]: 270 nM
IC50 [15]: 260 nM
IC50 [16]: 150 nM
IC50 [17]: 170 nM
IC50 [18]: > 5000 nM
IC50 [19]: 130 nM
IC50 [20]: 130 nM
IC50 [21]: 190 nM
IC50 [22]: 0.05 µM
IC50 [23]: 40 nM
IC50 [24]: 280 nM
IC50 [25]: 300 nM
IC50 [26]: 280 nM
IC50 ([27]; SAOS-2, 72 h, read-out: 72-h MTT IC50 Saos-2, Table 3, Bone osteosarcoma): 0.43 µM
IC50 [27, 41]: 0.58 µM
IC50 [28]: 140 nM

Cc1nc(C)c(-c2ccnc(Nc3ccc(N(C)C)c([N+](=O)[O-])c3)n2)s1 [Compound 25, N^4-[4-(2,4-Dimethyl-thiazol-5-yl)-pyrimidin-2-yl-]-N^1,N^1-dimethyl-2-nitro-benzene-1,4-diamine]
IC50 ([1]; A549, 72 h, read-out: 72-h MTT in vitro IC50 (μM) A549): 0.43 µM
IC50 [29]: > 100000 nM
IC50 [30]: 900 nM
IC50 [7, 40]: 0.3 µM
IC50 [31]: > 100000 nM
IC50 [32]: 25000 nM
IC50 [33]: 1300 nM
IC50 [34]: 9900 nM
IC50 [35]: > 100000 nM
IC50 [36]: > 100000 nM
IC50 [37]: > 100000 nM
IC50 [27, 41]: 0.35 µM
IC50 [38]: 61000 nM
IC50 [39]: 120 nM

Source: US7427627B2, “N-(4-(4-methylthiazol-5-yl) pyrimidin-2-yl)-N-phenylamines as antiproliferative compounds” (Cyclacel Limited, priority 2001, dated 2008)
